Like-named read-outs stand apart in the source and are kept apart here.
Experiments:
A2B receptor = test system: A2B receptor; design: method as in Brackett and Daly, 1994; conditions: ref Brackett and Daly, 1994; cited from earlier work
human A2B receptors [1] = molecular target: T1, human A2B receptors (Homo sapiens, UniProt P29275); conditions: ref Jacobson et al., 1999, cited from earlier work
T1 construct: expressed in transfected cells; host or cells: HEK-293
T1 sequence (P29275 1-332): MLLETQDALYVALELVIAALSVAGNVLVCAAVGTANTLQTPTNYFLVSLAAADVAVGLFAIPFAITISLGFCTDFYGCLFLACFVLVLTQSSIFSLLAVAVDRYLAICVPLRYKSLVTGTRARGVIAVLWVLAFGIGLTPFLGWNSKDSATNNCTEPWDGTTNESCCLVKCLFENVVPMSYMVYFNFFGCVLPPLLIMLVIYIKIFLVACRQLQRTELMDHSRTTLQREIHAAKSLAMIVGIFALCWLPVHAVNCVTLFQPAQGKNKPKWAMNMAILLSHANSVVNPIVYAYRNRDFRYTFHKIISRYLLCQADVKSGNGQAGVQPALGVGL

human A3 receptors = molecular target: T2, human A3 receptors (Homo sapiens, UniProt P0DMS8); experiment: Displacement of [125I]AB-MECA binding at human A3 receptors expressed in HEK cells; conditions: read-out: Ki hA3
T2 construct: expressed in transfected cells; host or cells: HEK-293
T2 sequence (P0DMS8 1-318): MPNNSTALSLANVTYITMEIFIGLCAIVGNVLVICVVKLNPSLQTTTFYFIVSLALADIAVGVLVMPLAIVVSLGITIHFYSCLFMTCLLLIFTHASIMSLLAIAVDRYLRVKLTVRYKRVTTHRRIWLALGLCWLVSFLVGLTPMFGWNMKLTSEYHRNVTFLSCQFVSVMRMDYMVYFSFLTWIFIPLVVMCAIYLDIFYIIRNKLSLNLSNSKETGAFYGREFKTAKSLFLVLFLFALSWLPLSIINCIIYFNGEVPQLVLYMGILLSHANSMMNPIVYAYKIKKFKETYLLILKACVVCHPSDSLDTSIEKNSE
Protocol: (§1) At A2B receptors, two radioligand binding assays (Table 1) were used. Ki values of xanthine derivatives were determined in displacement of binding of the non-selective radioligands […], 8 (4-(2-[7-amino-2-{furyl}{1,2,4}triazolo{2,3-a}{1,3,5}tr nzyl)-8-phenyloxyacetate-1-propyl-xanthine), at human A2B receptors expressed in HEK-293 cell membranes [[Linden and Jacobson, 1998]]. In order to evaluate selectivity, selected derivatives were subjected to standard binding assays at A1, A2A, and A3 receptors. The initial screening utilized rat brain A1/A2A receptors (with radioligands [^3H]R-PIA and [^3H]CGS-21680), and selected compounds were examined at the recombinant human subtypes (Table 1), using [^3H]CPX ([^3H]8-cyclopentyl-1,3-dipropylxanthine) and ^125I-ZM 241385, ^125I-4-(2-[7-amino-2-[2-furyl][1,2,4]triazolo[2,3-a][1,3,5]triazin-5-yl-amino]ethyl)phenol) [[Palmer et al., 1996]].

human A1 receptors = molecular target: T3, human A1 receptors (Homo sapiens, UniProt P30542); experiment: Binding at recombinant human A1 receptors expressed in HEK-293 cells vs [3H]CPX; conditions: recombinant human A1 in HEK-293 cells
T3 construct: expressed in transfected cells; host or cells: HEK-293
T3 sequence (P30542 1-326): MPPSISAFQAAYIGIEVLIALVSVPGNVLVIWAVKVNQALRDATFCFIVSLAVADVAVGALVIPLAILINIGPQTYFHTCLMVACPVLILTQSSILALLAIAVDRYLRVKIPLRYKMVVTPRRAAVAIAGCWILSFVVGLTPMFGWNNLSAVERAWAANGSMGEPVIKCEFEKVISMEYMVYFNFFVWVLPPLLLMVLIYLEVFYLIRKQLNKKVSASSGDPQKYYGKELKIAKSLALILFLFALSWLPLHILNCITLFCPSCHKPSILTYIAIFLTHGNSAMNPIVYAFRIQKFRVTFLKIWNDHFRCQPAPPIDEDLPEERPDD
Protocol: (§2) All nonradioactive compounds were initially dissolved in DMSO and diluted with buffer to the final concentration, where the amount of DMSO never exceeded 2%. Incubations were terminated by rapid filtration over Whatman GF/B filters using a Brandell cell harvester. The tubes were rinsed three times with 3 mL buffer each.
(§3) At least six different concentrations of competitor, spanning 3 orders of magnitude adjusted appropriately for the IC50 value of each compound, were used. IC50 values, calculated with the nonlinear regression method implemented in Graph-Pad Prism (San Diego, CA) were converted to apparent Ki values as described by [Linden [1982]]. Hill coefficients of the tested compounds were in the range of 0.8–1.1.
as §1

human A2B receptors [2] = molecular target: T1, human A2B receptors; experiment: Binding at human A2B receptors expressed in HEK-293 cells vs [3H]ZM241385; conditions: for rA1/hA2B: ratio of Ki rat A1 to Ki human A2B
Protocol: The plasmid was amplified in competent JM109 cells and plasmid DNA isolated using Wizard Megaprep columns (Promega Corp., Madison, WI).
Colonies were selected by growth of cells in 0.6 mg/mL G418. Transfected cells were maintained in DMEM supplemented with Hams F12 nutrient mixture (1/1), 10% newborn calf serum, 2 mM glutamine, and containing 50 IU/mL penicillin, 50 μg/mL streptomycin, and 0.2 mg/mL Geneticin (G418, Boehringer Mannheim, Indianapolis, IN).
Confluent monolayers of HEK-A2B cells were washed with PBS followed by ice-cold Buffer A (10 mM HEPES, 10 mM EDTA, pH 7.4) with protease inhibitors ([…] benzamidine, […], and […] of each aprotinin, pepstatin, and leupeptin). The cells were homogenized in a Polytron (Brinkmann) for 20 sec, centrifuged at 30,000g, and the pellets washed twice with buffer HE (10 mM HEPES, 1 mM EDTA, pH 7.4 with protease inhibitors). The final pellet was resuspended in buffer HE, supplemented with 10% sucrose and frozen in aliquots at −80°C. For binding assays, membranes were thawed and diluted 5–10-fold with HE to a final protein concentration of approximately 1 mg/mL. […] After incubating for 20 min at room temperature, 50 mL of 10 mg/mL Na-metabisulfite in water was added the quench the reaction. The reaction products were applied to a C18 HPLC column using 4 mM phosphate, pH 6.0/methanol. […] The incubation time was 3 h at 21°C. […] Membranes were filtered on Whatman GF/C filters using a Brandell cell harvester (Gaithersburg, MD) and washed three times over 15–20 sec with ice-cold buffer (10 mM Tris, 1 mM MgCl2, pH 7.4). […] Data from replicate experiments are tabulated as means ± SEM.
At A2B receptors, two radioligand binding assays (Table 1) were used. […] In order to evaluate selectivity, selected derivatives were subjected to standard binding assays at A1, A2A, and A3 receptors.

rat A1 receptors = molecular target: T4, rat A1 receptors (Rattus norvegicus, UniProt P25099); experiment: Displacement of [3H]R-PIA binding to A1 receptors in rat brain membranes; conditions: read-out: Ki rA1
T4 construct: to A1 receptors from rat cerebral cortical membranes; from tissue; host or cells: rat cerebral cortical membranes
T4 sequence (P25099 1-326): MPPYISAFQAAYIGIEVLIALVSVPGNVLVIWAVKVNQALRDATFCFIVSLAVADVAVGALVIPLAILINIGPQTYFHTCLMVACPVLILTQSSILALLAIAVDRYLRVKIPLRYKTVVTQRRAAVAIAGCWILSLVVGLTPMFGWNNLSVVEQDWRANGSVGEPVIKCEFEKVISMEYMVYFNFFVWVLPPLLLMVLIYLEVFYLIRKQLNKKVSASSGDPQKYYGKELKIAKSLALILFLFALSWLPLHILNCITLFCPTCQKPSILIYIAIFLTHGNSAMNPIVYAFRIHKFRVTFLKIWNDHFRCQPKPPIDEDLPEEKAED
Protocol: as §2, §3, §1

human A2A receptors = molecular target: T5, human A2A receptors (Homo sapiens, UniProt P29274); experiment: Binding at recombinant human A2A receptors expressed in HEK-293 cells vs [125I]ZM241385; conditions: recombinant human A2A in HEK-293 cells, read-out: Ki A2A (h) (converted)
T5 construct: expressed in transfected cells; host or cells: HEK-293
Protocol: as §2, §3, §1

rat A2A receptors = molecular target: T6, rat A2A receptors (Rattus norvegicus, UniProt P30543); experiment: Displacement of [3H]CGS 21680 binding to A2A receptors in rat striatal membranes; conditions: read-out: Ki rA2A
T6 construct: to A2A receptors from rat striatal membranes; from tissue; host or cells: rat striatal membranes
Protocol: as §2, §3, §1

[3] = HEK-293 cells, vs [3H]ZM241385, read-out: Ki hA2B
[4] = rounded values given in text, read-out: Ki at human A2B receptors

T6 sequence (P30543 whole entry): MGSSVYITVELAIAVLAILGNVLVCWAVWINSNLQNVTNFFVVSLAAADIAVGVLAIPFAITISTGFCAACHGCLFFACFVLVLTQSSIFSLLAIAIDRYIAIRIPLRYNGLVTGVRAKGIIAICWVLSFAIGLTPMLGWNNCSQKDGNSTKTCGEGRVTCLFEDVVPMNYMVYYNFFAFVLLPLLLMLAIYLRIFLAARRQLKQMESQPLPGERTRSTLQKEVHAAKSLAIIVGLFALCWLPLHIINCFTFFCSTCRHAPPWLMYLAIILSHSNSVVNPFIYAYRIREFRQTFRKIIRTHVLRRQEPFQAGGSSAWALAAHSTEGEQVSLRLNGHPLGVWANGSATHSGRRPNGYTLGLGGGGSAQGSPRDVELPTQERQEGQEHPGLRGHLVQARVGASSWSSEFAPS
T5 sequence (P29274 whole entry): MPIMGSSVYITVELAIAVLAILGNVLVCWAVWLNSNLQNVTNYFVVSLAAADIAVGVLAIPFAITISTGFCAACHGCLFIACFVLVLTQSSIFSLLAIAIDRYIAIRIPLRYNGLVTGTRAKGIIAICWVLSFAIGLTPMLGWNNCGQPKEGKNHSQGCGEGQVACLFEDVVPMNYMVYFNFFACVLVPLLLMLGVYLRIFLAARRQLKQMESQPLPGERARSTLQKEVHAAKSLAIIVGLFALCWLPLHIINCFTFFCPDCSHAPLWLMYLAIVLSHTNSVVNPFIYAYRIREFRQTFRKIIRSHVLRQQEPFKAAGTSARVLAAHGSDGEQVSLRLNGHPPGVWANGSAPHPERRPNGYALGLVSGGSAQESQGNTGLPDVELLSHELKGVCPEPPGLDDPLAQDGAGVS

Ki (human A3 receptors)	Ki (human A1 receptors)	Ki (human A2B receptors [2]; [3])	rA1/hA2B (human A2B receptors [2])	Ki (rat A1 receptors)	Ki (human A2A receptors)	Ki (rat A2A receptors)	Compound	selectivity as antagonist at the A2B receptor vs. other subtypes (A2B receptor)	enhancement of affinity at A2B receptors (human A2B receptors [1]; relative to theophylline, 2)	selectivity for human A2B receptors vs. A1, A2A, and A3 adenosine receptors (human A2B receptors [1])	Ki (human A2B receptors [2]; [4])
–	–	–	–	–	–	–	O=c1nc2[nH]c3ccccc3nc-2c(=O)[nH]1 [Alloxazine]	approximately one order of magnitude	–	–	–
–	–	–	–	–	–	–	Cn1c(=O)c2[nH]c(-c3ccccc3)nc2n(C)c1=O [Compound 3]	–	22 fold	–	–
–	–	–	–	–	–	–	CCCn1c(=O)c2[nH]c(-c3ccc(OCC(=O)ON4C(=O)CCC4=O)cc3)nc2n(CCC)c1=O [Compound 4d]	–	–	approximately 20 fold	–
766 ± 176 nM	75.2 nM	18.6 ± 6.1 nM	3.0	55.9 ± 25.1 nM	27.2 nM	805 ± 44 nM	CCCn1c(=O)c2[nH]c(-c3ccc(OCC(=O)NN4C(=O)CCC4=O)cc3)nc2n(CCC)c1=O [Compound 10, 8-[4-[(Carboxymethyl)oxy]phenyl]-1,3-di-(n-propyl)xanthine N,N-Succinylhydrazide]	–	–	–	–
370 ± 190 nM	129 nM	10 ± 3 nM	3.6	36.4 ± 6.2 nM	301 nM	689 ± 477 nM	CCCn1c(=O)c2[nH]c(-c3ccc(OCC(=O)NN4C(=O)C5CC=CCC5C4=O)cc3)nc2n(CCC)c1=O (stereo not drawn) [Compound 18b, 8-[4-[(Carboxymethyl)oxy]phenyl]-1,3-di-(n-propyl)xanthine N,N-(cis-1,2,3,6-Tetrahydrophthaloyl)-hydrazide]	–	–	–	–
726 ± 245 nM	149 nM	13 ± 3.5 nM	4.1	53.5 ± 6.5 nM	178 nM	440 ± 106 nM	CCCn1c(=O)c2[nH]c(-c3ccc(OCC(=O)NN4C(=O)CC[C@H](NC(=O)C(F)(F)F)C4=O)cc3)nc2n(CCC)c1=O [Compound 24b]	–	–	–	–
323 ± 47 nM	200 nM	10.8 ± 5 nM	3.3	36 ± 6.6 nM	830 nM	609 ± 95 nM	CCCn1c(=O)c2[nH]c(-c3ccc(OCC(=O)NNC(=O)CNC(=O)CNC(=O)OCc4ccccc4)cc3)nc2n(CCC)c1=O [Compound 27, 8-[4-[(Carboxymethyl)oxy]phenyl]-1,3-di-(n-propyl)xanthine N-(N-Benzyloxycarbonyl-glycylglycinyl)hydrazide]	–	–	–	11 nM

Compound	Ki (human A3 receptors)	Ki (human A1 receptors)	Ki (human A2B receptors [2]; [3])	rA1/hA2B (human A2B receptors [2])	Ki (rat A1 receptors)	Ki (human A2A receptors)	Ki (rat A2A receptors)	selectivity as antagonist at the A2B receptor vs. other subtypes (A2B receptor)	enhancement of affinity at A2B receptors (human A2B receptors [1]; relative to theophylline, 2)	selectivity for human A2B receptors vs. A1, A2A, and A3 adenosine receptors (human A2B receptors [1])	Ki (human A2B receptors [2]; [4])
CCCn1c(=O)c2[nH]c(-c3ccc(OCC(=O)NNC(=O)[C@H](CCSC)NC(=O)OC(C)(C)C)cc3)nc2n(CCC)c1=O [Compound 26, 8-[4-[(Carboxymethyl)oxy]phenyl]-1,3-di-(n-propyl)xanthine N-(N-tert-Butoxycarbonyl-L-methionyl)-hydrazide]	690 ± 570 nM	–	39.7 ± 13.6 nM	2.8	113 ± 27 nM	–	524 ± 285 nM	–	–	–	40 nM
